# Results taken from publication PMC5218480 (PLoS ONE, 2017).
# System: MV-4-11 cells
# Assay: Gene expression microarray analysis (Affymetrix PrimeView) and GSEA
# Format: cell-based, human
# Parameters: RFU PODN (11730768_x_at) / Fold change /veh PODN (11730768_x_at) / RFU LINC00158 (11744669_a_at) / Fold change /veh LINC00158 (11744669_a_at) / RFU DUSP10 (11751237_a_at) / Fold change /veh DUSP10 (11751237_a_at) / RFU ID3 (11757404_x_at) / Fold change /veh ID3 (11757404_x_at) / RFU PLEKHG5 (11737974_s_at) / Fold change /veh PLEKHG5 (11737974_s_at) / RFU LRRC4B (11730491_at) / Fold change /veh LRRC4B (11730491_at) / RFU GIMAP4 (11747438_a_at) / Fold change /veh GIMAP4 (11747438_a_at) / RFU KRT8 (11758183_x_at) / Fold change /veh KRT8 (11758183_x_at) / RFU CNN1 (11734310_a_at) / Fold change /veh CNN1 (11734310_a_at) / RFU VPS37D (11726825_at) / Fold change /veh VPS37D (11726825_at) / RFU C10orf10 (11716522_x_at) / Fold change /veh C10orf10 (11716522_x_at) / RFU KIR2DL2 /// KIR2DL4 /// KIR2DL5A /// KIR2DL5B /// KIR2DS1 /// KIR2DS2 /// KIR2DS3 /// KIR2DS4 /// KIR3DL3 /// KIR3DL3 /// KIR3DS1 (11738374_at) / Fold change /veh KIR2DL2 /// KIR2DL4 /// KIR2DL5A /// KIR2DL5B /// KIR2DS1 /// KIR2DS2 /// KIR2DS3 /// KIR2DS4 /// KIR3DL3 /// KIR3DL3 /// KIR3DS1 (11738374_at) / RFU C1QL1 (11718748_at) / Fold change /veh C1QL1 (11718748_at) / RFU TMPRSS4 (11747572_a_at) / Fold change /veh TMPRSS4 (11747572_a_at) / RFU HAMP (11756126_x_at) / Fold change /veh HAMP (11756126_x_at) / RFU RNFT2 (11725882_a_at) / Fold change /veh RNFT2 (11725882_a_at) / RFU NR4A2 (11747474_a_at) / Fold change /veh NR4A2 (11747474_a_at) / RFU ABCC12 (11746883_a_at) / Fold change /veh ABCC12 (11746883_a_at) / RFU TMEM136 (11760407_x_at) / Fold change /veh TMEM136 (11760407_x_at) / RFU CLDN22 /// WWC2 (11732394_at) / Fold change /veh CLDN22 /// WWC2 (11732394_at) / RFU HLA-DPB1 (11760878_x_at) / Fold change /veh HLA-DPB1 (11760878_x_at) / RFU SPINT1 (11716480_a_at) / Fold change /veh SPINT1 (11716480_a_at) / RFU GAP43 (11754022_s_at) / Fold change /veh GAP43 (11754022_s_at) / RFU A4GNT (11735810_at) / Fold change /veh A4GNT (11735810_at) / RFU PRB3 (11715151_x_at) / Fold change /veh PRB3 (11715151_x_at) / RFU TUBB4B (11761932_at) / Fold change /veh TUBB4B (11761932_at) / RFU CAPN14 (11732068_a_at) / Fold change /veh CAPN14 (11732068_a_at) / RFU TMCC2 (11721928_a_at) / Fold change /veh TMCC2 (11721928_a_at) / RFU IRGQ (11745062_a_at) / Fold change /veh IRGQ (11745062_a_at) / RFU FAM174B (11720279_a_at) / Fold change /veh FAM174B (11720279_a_at) / RFU TMPRSS4 (11748680_a_at) / Fold change /veh TMPRSS4 (11748680_a_at) / RFU FAM212B (11763350_a_at) / Fold change /veh FAM212B (11763350_a_at) / RFU PLEKHG5 (11743358_a_at) / Fold change /veh PLEKHG5 (11743358_a_at) / RFU ZSCAN30 (11745921_a_at) / Fold change /veh ZSCAN30 (11745921_a_at) / RFU CMKLR1 (11741424_a_at) / Fold change /veh CMKLR1 (11741424_a_at) / RFU LOC101060620 /// MAPK8IP1 (11723275_at) / Fold change /veh LOC101060620 /// MAPK8IP1 (11723275_at) / RFU SPTSSB (11747773_x_at) / Fold change /veh SPTSSB (11747773_x_at) / RFU PRSS12 (11739890_at) / Fold change /veh PRSS12 (11739890_at) / RFU BIN1 (11741810_x_at) / Fold change /veh BIN1 (11741810_x_at) / RFU WNT11 (11732464_a_at) / Fold change /veh WNT11 (11732464_a_at) / RFU C10orf10 (11716521_a_at) / Fold change /veh C10orf10 (11716521_a_at) / RFU C5orf56 (11738089_at) / Fold change /veh C5orf56 (11738089_at) / RFU CYB561 (11721691_x_at) / Fold change /veh CYB561 (11721691_x_at) / RFU ANKRD19P (11752326_a_at) / Fold change /veh ANKRD19P (11752326_a_at) / RFU OR2T12 /// OR2T33 /// OR2T8 (11738714_s_at) / Fold change /veh OR2T12 /// OR2T33 /// OR2T8 (11738714_s_at) / RFU VCAN (11748164_a_at) / Fold change /veh VCAN (11748164_a_at) / RFU JSRP1 (11732532_at) / Fold change /veh JSRP1 (11732532_at) / RFU KRTAP10-11 (11738290_x_at) / Fold change /veh KRTAP10-11 (11738290_x_at) / RFU MYO3A (11730013_a_at) / Fold change /veh MYO3A (11730013_a_at) / RFU EBF3 (11725865_a_at) / Fold change /veh EBF3 (11725865_a_at) / RFU CAMK2N1 (11719241_x_at) / Fold change /veh CAMK2N1 (11719241_x_at) / RFU C5orf56 (11738088_a_at) / Fold change /veh C5orf56 (11738088_a_at) / RFU OLFML3 (11715873_a_at) / Fold change /veh OLFML3 (11715873_a_at) / RFU LOC100653217 /// NTM (11731650_a_at) / Fold change /veh LOC100653217 /// NTM (11731650_a_at) / RFU MAPK11 (11762145_a_at) / Fold change /veh MAPK11 (11762145_a_at) / RFU FIZ1 (11724087_x_at) / Fold change /veh FIZ1 (11724087_x_at) / RFU OASL (11726364_x_at) / Fold change /veh OASL (11726364_x_at) / RFU SOX15 (11748057_x_at) / Fold change /veh SOX15 (11748057_x_at) / RFU CD79A (11719716_a_at) / Fold change /veh CD79A (11719716_a_at) / RFU HIST1H1D (11736915_at) / Fold change /veh HIST1H1D (11736915_at) / RFU CASKIN2 (11723855_a_at) / Fold change /veh CASKIN2 (11723855_a_at) / RFU LOC730098 (11760151_x_at) / Fold change /veh LOC730098 (11760151_x_at) / RFU OR4N2 (11742367_at) / Fold change /veh OR4N2 (11742367_at) / RFU PRRT2 (11749266_a_at) / Fold change /veh PRRT2 (11749266_a_at) / RFU SNX32 (11753110_a_at) / Fold change /veh SNX32 (11753110_a_at) / RFU CDHR5 (11726645_a_at) / Fold change /veh CDHR5 (11726645_a_at) / RFU RCAN1 (11760418_a_at) / Fold change /veh RCAN1 (11760418_a_at) / RFU FAM167A (11723789_a_at) / Fold change /veh FAM167A (11723789_a_at) / RFU FAM26E (11764081_at) / Fold change /veh FAM26E (11764081_at) / RFU ISYNA1 (11749810_s_at) / Fold change /veh ISYNA1 (11749810_s_at) / RFU ACY1 (11761880_at) / Fold change /veh ACY1 (11761880_at) / RFU 11764098_at / Fold change /veh 11764098_at / RFU SAMD14 (11745864_x_at) / Fold change /veh SAMD14 (11745864_x_at) / RFU NPB (11741838_a_at) / Fold change /veh NPB (11741838_a_at) / RFU TMPRSS6 (11731388_a_at) / Fold change /veh TMPRSS6 (11731388_a_at) / RFU KRTAP10-2 (11738614_at) / Fold change /veh KRTAP10-2 (11738614_at) / RFU ARHGAP8 /// PRR5-ARHGAP8 (11727945_x_at) / Fold change /veh ARHGAP8 /// PRR5-ARHGAP8 (11727945_x_at) / RFU KRTAP5-7 /// NADSYN1 (11734609_at) / Fold change /veh KRTAP5-7 /// NADSYN1 (11734609_at) / RFU RASL12 (11751679_a_at) / Fold change /veh RASL12 (11751679_a_at) / RFU CDKN2B (11736163_a_at) / Fold change /veh CDKN2B (11736163_a_at) / RFU PRF1 (11729649_at) / Fold change /veh PRF1 (11729649_at) / RFU, ZNF638 /// ZNF638-IT1 / Fold change vs veh, ZNF638 /// ZNF638-IT1 / RFU, PANK3 / Fold change vs veh, PANK3 / RFU, SH3YL1 / Fold change vs veh, SH3YL1 / RFU, ZEB2 / Fold change vs veh, ZEB2 / RFU, NRIP1 / Fold change vs veh, NRIP1 / RFU, PTTG1IP / Fold change vs veh, PTTG1IP / RFU, CAPN2 / Fold change vs veh, CAPN2 / RFU, MED14 / Fold change vs veh, MED14 / RFU, SNORA58 / Fold change vs veh, SNORA58 / RFU, C1orf63 / Fold change vs veh, C1orf63 / RFU, LRRFIP1 / Fold change vs veh, LRRFIP1 / RFU, NDUFAF7 / Fold change vs veh, NDUFAF7 / RFU, SLC12A2 / Fold change vs veh, SLC12A2 / RFU, IBTK / Fold change vs veh, IBTK / RFU, ESF1 / Fold change vs veh, ESF1 / Fold change vs veh, TMEM50B / RFU, TAOK1 / Fold change vs veh, TAOK1 / RFU, ACBD3 / Fold change vs veh, ACBD3 / RFU, TMA16 / Fold change vs veh, TMA16 / RFU, RWDD3 / Fold change vs veh, RWDD3 / RFU, BCAT1 / Fold change vs veh, BCAT1 / RFU, EDEM3 / Fold change vs veh, EDEM3 / RFU, TMEM33 / Fold change vs veh, TMEM33 / RFU, WDR75 / Fold change vs veh, WDR75 / RFU, AHCTF1 / Fold change vs veh, AHCTF1 / RFU, TFRC / Fold change vs veh, TFRC / RFU, ZDHHC17 / Fold change vs veh, ZDHHC17 / RFU, NOM1 / Fold change vs veh, NOM1 / RFU, ARL8B / Fold change vs veh, ARL8B / RFU, ZBTB11 / Fold change vs veh, ZBTB11 / RFU, TAMM41 / Fold change vs veh, TAMM41 / RFU, KIAA1704 /// LOC100996395 / Fold change vs veh, KIAA1704 /// LOC100996395 / RFU, ING1 / Fold change vs veh, ING1 / RFU, TRMT61B / Fold change vs veh, TRMT61B / RFU, FUBP3 / Fold change vs veh, FUBP3 / RFU, TP53 / Fold change vs veh, TP53 / RFU, TNKS2 / Fold change vs veh, TNKS2 / RFU, ZFP14 / Fold change vs veh, ZFP14 / RFU, ACTR2 / Fold change vs veh, ACTR2 / RFU, PPP3R1 / Fold change vs veh, PPP3R1 / RFU, PIK3R1 / Fold change vs veh, PIK3R1 / RFU, HNRNPA1 / Fold change vs veh, HNRNPA1 / RFU, RNF170 / Fold change vs veh, RNF170 / RFU, ZNF28 / Fold change vs veh, ZNF28 / RFU, RNGTT / Fold change vs veh, RNGTT / RFU, OGT / Fold change vs veh, OGT / RFU, BRD1 / Fold change vs veh, BRD1 / RFU, MARS / Fold change vs veh, MARS / RFU, ZNF655 / Fold change vs veh, ZNF655 / RFU, FAHD1 / Fold change vs veh, FAHD1 / RFU, BDP1 / Fold change vs veh, BDP1 / RFU, LRRCC1 / Fold change vs veh, LRRCC1 / RFU, ARID1A / Fold change vs veh, ARID1A / RFU, ZNF146 / Fold change vs veh, ZNF146 / RFU, ZNF330 / Fold change vs veh, ZNF330 / RFU, GPN3 / Fold change vs veh, GPN3 / RFU, C9orf123 / Fold change vs veh, C9orf123 / RFU, N4BP2L2 / Fold change vs veh, N4BP2L2 / RFU, ARFIP1 / Fold change vs veh, ARFIP1 / RFU, FAM179B / Fold change vs veh, FAM179B / RFU, BCL10 / Fold change vs veh, BCL10 / RFU, UHRF1BP1L / Fold change vs veh, UHRF1BP1L / RFU, BET1 / Fold change vs veh, BET1 / RFU, CNOT2 / Fold change vs veh, CNOT2 / RFU, ZNF268 / Fold change vs veh, ZNF268 / Fold change vs veh, ZNF507 / RFU, DGCR2 / Fold change vs veh, DGCR2 / RFU, WDSUB1 / Fold change vs veh, WDSUB1 / Fold change vs veh, HSP90B1 /// MIR3652 / RFU, ADSS / Fold change vs veh, ADSS / RFU, GK / Fold change vs veh, GK / RFU, ZNF148 / Fold change vs veh, ZNF148 / RFU, TAF9 / Fold change vs veh, TAF9 / RFU, SLC1A5 / Fold change vs veh, SLC1A5 / RFU, SLMO2 / Fold change vs veh, SLMO2 / RFU, ABCC4 / Fold change vs veh, ABCC4 / RFU, LOC101060439 /// RAP1B / Fold change vs veh, LOC101060439 /// RAP1B / RFU, RFX7 / Fold change vs veh, RFX7 / RFU, GTPBP10 / Fold change vs veh, GTPBP10 / RFU, CNEP1R1 / Fold change vs veh, CNEP1R1 / RFU, BIVM-ERCC5 /// ERCC5 / Fold change vs veh, BIVM-ERCC5 /// ERCC5 / RFU, ILF3 / Fold change vs veh, ILF3 / RFU 11762660_at / Fold change /veh 11762660_at / RFU VCAN (11757783_s_at) / Fold change /veh VCAN (11757783_s_at) / RFU DDX43 (11728927_at) / Fold change /veh DDX43 (11728927_at) / RFU KRT8 (11758188_x_at) / Fold change /veh KRT8 (11758188_x_at) / RFU NKD1 (11759106_at) / Fold change /veh NKD1 (11759106_at) / RFU SRD5A1 (11742802_a_at) / Fold change /veh SRD5A1 (11742802_a_at) / RFU TPSAB1 /// TPSB2 (11721975_s_at) / Fold change /veh TPSAB1 /// TPSB2 (11721975_s_at) / RFU GSTM3 (11746129_a_at) / Fold change /veh GSTM3 (11746129_a_at) / RFU IL23R (11737362_x_at) / Fold change /veh IL23R (11737362_x_at) / RFU TMEM51 (11727254_a_at) / Fold change /veh TMEM51 (11727254_a_at) / RFU PIWIL2 (11732686_x_at) / Fold change /veh PIWIL2 (11732686_x_at) / RFU ORM1 (11744905_x_at) / Fold change /veh ORM1 (11744905_x_at) / RFU CCDC152 (11743942_at) / Fold change /veh CCDC152 (11743942_at) / RFU ECM1 (11717891_a_at) / Fold change /veh ECM1 (11717891_a_at) / RFU IL23R (11748794_a_at) / Fold change /veh IL23R (11748794_a_at) / RFU TNFAIP8L3 (11732012_x_at) / Fold change /veh TNFAIP8L3 (11732012_x_at) / RFU MBOAT4 (11741988_at) / Fold change /veh MBOAT4 (11741988_at) / RFU 11764193_at / Fold change /veh 11764193_at / RFU TMEM53 (11763286_at) / Fold change /veh TMEM53 (11763286_at) / RFU MAGEB2 (11727129_at) / Fold change /veh MAGEB2 (11727129_at) / RFU TMEM200A (11744735_a_at) / Fold change /veh TMEM200A (11744735_a_at) / RFU CCDC152 (11751479_a_at) / Fold change /veh CCDC152 (11751479_a_at) / RFU FAM211A (11726209_a_at) / Fold change /veh FAM211A (11726209_a_at) / RFU RGS16 (11746705_a_at) / Fold change /veh RGS16 (11746705_a_at) / RFU VCAN (11755009_s_at) / Fold change /veh VCAN (11755009_s_at) / RFU RHOB (11743442_s_at) / Fold change /veh RHOB (11743442_s_at) / RFU RGS16 (11720943_a_at) / Fold change /veh RGS16 (11720943_a_at) / RFU RGS16 (11720944_at) / Fold change /veh RGS16 (11720944_at) / RFU, VPS4B / Fold change vs veh, VPS4B / RFU, CREB1 / Fold change vs veh, CREB1 / RFU, DNAJC13 / Fold change vs veh, DNAJC13 / RFU, GNAQ / Fold change vs veh, GNAQ / RFU, CDK5R1 / Fold change vs veh, CDK5R1 / RFU, ZRANB3 / Fold change vs veh, ZRANB3 / RFU, CUL4A / Fold change vs veh, CUL4A / RFU, CCNY / Fold change vs veh, CCNY / RFU, UFL1 / Fold change vs veh, UFL1 / RFU, COG3 / Fold change vs veh, COG3 / RFU, DIAPH2 / Fold change vs veh, DIAPH2 / RFU, SKA2 / Fold change vs veh, SKA2 / RFU, AFF3 / Fold change vs veh, AFF3 / RFU, LMF1 / Fold change vs veh, LMF1 / RFU, IPO11 / Fold change vs veh, IPO11 / RFU, DFFB / Fold change vs veh, DFFB / RFU, FOXP1 / Fold change vs veh, FOXP1 / RFU, CARD8 / Fold change vs veh, CARD8 / RFU, STRN3 / Fold change vs veh, STRN3 / RFU, ADK / Fold change vs veh, ADK / RFU, RASSF2 / Fold change vs veh, RASSF2 / RFU, WIPF1 / Fold change vs veh, WIPF1 / RFU, LARP1B / Fold change vs veh, LARP1B / RFU, RASA1 / Fold change vs veh, RASA1 / RFU, RB1 / Fold change vs veh, RB1 / RFU, PPFIA1 / Fold change vs veh, PPFIA1 / RFU, MAT2A / Fold change vs veh, MAT2A / RFU, CCT5 / Fold change vs veh, CCT5 / RFU, WDR92 / Fold change vs veh, WDR92 / RFU, CUX1 / Fold change vs veh, CUX1 / RFU, TTC7A / Fold change vs veh, TTC7A / RFU, TMEM135 / Fold change vs veh, TMEM135 / RFU, DEPTOR / Fold change vs veh, DEPTOR / RFU, CPM / Fold change vs veh, CPM / RFU, DNAJB6 / Fold change vs veh, DNAJB6 / RFU, CACNA2D3 / Fold change vs veh, CACNA2D3 / RFU, DTX4 / Fold change vs veh, DTX4 / RFU, TFCP2 / Fold change vs veh, TFCP2 / RFU, GMCL1 /// GMCL1P1 / Fold change vs veh, GMCL1 /// GMCL1P1 / RFU, AEBP2 / Fold change vs veh, AEBP2 / RFU, SNHG1 /// SNORD22 /// SNORD25 /// SNORD26 /// SNORD27 /// SNORD28 /// SNORD29 /// SNORD31 / Fold change vs veh, SNHG1 /// SNORD22 /// SNORD25 /// SNORD26 /// SNORD27 /// SNORD28 /// SNORD29 /// SNORD31 / Fold change (Aza/veh), C12orf56 (ProbeSet 11735607_a_at) / Fold change (ACY-1035/veh), C12orf56 (ProbeSet 11735607_a_at) / Fold change (Aza/veh), FGFR1OP (ProbeSet 11751329_s_at) / Fold change (ACY-1035/veh), FGFR1OP (ProbeSet 11751329_s_at) / Fold change (Aza/veh), VPS36 (ProbeSet 11739960_a_at) / Fold change (ACY-1035/veh), VPS36 (ProbeSet 11739960_a_at) / RFU SYPL1 (11715823_x_at) / Fold change /veh SYPL1 (11715823_x_at) / RFU IGFBP7 (11715501_s_at) / Fold change /veh IGFBP7 (11715501_s_at) / RFU REEP3 (11722064_at) / Fold change /veh REEP3 (11722064_at) / RFU IGLL1 (11728026_x_at) / Fold change /veh IGLL1 (11728026_x_at): dose or concentration left out as unconfirmed
# Settings: MV-4-11 cells, 48 hours
smiles,measurement,value
Nc1ccc(-c2cccs2)cc1NC(=O)c1ccc2c(c1)cc(C1CC1)n2CCN1CCOCC1 [ACY-1035],Fold change /veh VPS37D (11726825_at),1.08
